Reference: article PMC11272821, “Mechanistic safety assessment via multi-omic characterisation of systemic pathway perturbations following in vivo MAT2A inhibition” (Archives of Toxicology, 2024)
pIC50: −log10 of the molar value.

How the values were obtained:
[1] = tested on: HepG2 Spheroid; assay: HepG2 C3A 3D spheroid cytotoxicity; type: cell-based; conditions: 3D spheroids; read-out: HepG2 Spheroid Cytotox IC50
Source text: Full curve IC50 (µM) for hERG (human ether-a-go-go-related gene) and the cardiac ion channel panel (sodium and potassium ion channels; Nav1.5, IKs, Kv4.3), along with the L-type Calcium channel (Cav-1.2 Ver; verapamil, DIL; diltiazem), HepG2 C3A 3D spheroids, HepG2 C3A (2D cultures in glucose or galactose media), and THP1 cytotoxicity.

[2] = Plasma toxicokinetic analysis after twice daily oral dosing; type: in vivo; conditions: rat, n = 5
Procedure: All in vivo experimental procedures were conducted in accordance with United Kingdom legislation (Animals (Scientific Procedures) Act, 1986) and were compliant with the ARRIVE guidelines. 8–10 week old male (210–230 g) Crl:WI Han Wistar rats (Charles River Laboratories Ltd, UK) were acclimatised to the facility for 10 days and then randomised to groups based on bodyweight.
A whole blood sample (32 µL) was collected via a tail vein prick into a K2EDTA treated capillary tube, centrifuged at 1,500 g for 10 min at 4 °C, and plasma collected using a micropipette (non-EDTA Ref.no. 172292, Vitrex Medical A/S, Denmark). Samples were collected on Day 1 and Day 7 at 1 h, 2 h, 4 h, 8 h (pre-second dose), 10 h and 24 h post the first dose.
Calibration and quality control samples were prepared in rat plasma with a target concentration range for quantification of 0.1 – 100 µmol/L. Sample preparation: 8 µl of plasma were diluted in 92 µl of 5% (w/v) bovine serum albumin in phosphate buffer and gently shaken for 10 min before 5 min centrifugation at 2400 g at 4°C. 25 µL were transferred to new tubes and 150 µl of acetonitrile containing an internal standard were added for protein precipitation. After thorough mixing and centrifugation for 5 min at 2400 g and 4°C, 75 µl of supernatant were transferred into new tubes and diluted in 150 µL water/HCOOH (100:0.2, v/v) then thoroughly vortexed and again centrifuged for 5 min at 2400 g and 4°C. 1.5 µl of the supernatant were injected for LC-MS/MS analysis utilizing an Acquity UPLC BEH C18, 2.1x50 […], 1.7 µ column at 60° C. Mobile phase A: Acetonitrile/HCOOH (100/0.2, v/v) and B: water/HCCOH (100/0.2, v/v). Flow rate: 0.75 mL/min.

[3] = Liver mass spectrometry imaging; type: in vivo, rat
Procedure: Liver MSI. Tissue samples were snap frozen in dry ice cooled isopentane. Frozen samples were embedded in a HPMA/PVP hydrogel as previously detailed (Dannhorn et al. 2020). Tissue sectioning was performed using a CM1950 cryostat microtome (Leica Biosystems, Nussloch, Germany) at a section thickness of 10 µm. The tissue sections for desorption electrospray ionisation MSI (DESI-MSI), and matrix assisted laser desorption ionisation (MALDI-MSI) were immediately thaw mounted onto Superfrost or indium tin oxide coated microscope slides respectively. Tissue sections for positive ion mode DESI-MSI were washed with xylene for 1 minute to reduce ion suppression of metabolites of interest.
MSI analysis of most metabolites was performed by DESI-MSI and analysis of glutathione and glutathione disulphide was performed with MALDI-MSI. DESI-MSI analysis was carried out using a Q-Exactive mass spectrometer (Thermo Scientific, Bremen, Germany) equipped with an automated 2D-DESI ion source (Prosolia Inc., Indianapolis, IN, USA). Experiments were carried out in both positive and negative mode with a mass range up to a m/z of 1000, with a nominal mass resolution of 70,000. The injection time was fixed to 150 ms resulting in a scan rate of 3.8 pixel/s. […]

[4] = design: method as in Atkinson et al. [2024]; conditions: ref Atkinson et al. [2024]; cited from earlier work
[5] = tested on: SAM; assay: Targeted LC–MS of SAM in plasma, liver, brain and heart; type: in vivo, rat
Procedure: SAM and methionine levels were quantified in plasma samples and tissues using Ultra Performance Liquid Chromatography (UPLC) coupled with quantitative MS in ESI positive ion mode as described in Supplementary M&M.
For LCMS analysis, standard curves were spiked to give a calibrated range of 1.0 – 1000 nM for SAM and 1.0 – 2000 for methionine. 5 µL of standard spike solution was added to 45 µL of ACN/MeOH/H2O (40/40/20 v/v/v) and 2.5 µL of deuterated citrulline is added as an internal standard. A further calibration curve was prepared with 5 µL blank mouse plasma, 5 µL of standard and 40 µL of 40:40:20 Acetonitrile:Methanol:0.5% formic acid (Aq) with 2.5 µL of deuterated citrulline was used to investigate matrix suppression effects. Blank plasma was also diluted 1:10 with ACN/MeOH/H2O (40/40/20 v/v/v) and was also analysed to establish systemic biomarker levels.
Metabolomic sample preparation and analysis. Tissue samples (liver, brain, heart) were extracted with 1 mL of ACN/MeOH/H2O 40/40/20 v/v/v per 100 mg material in a PrecellysCK28K-2 mL tube. Tissues were homogenised/extracted in 3x20 sec shake at 5500 rpm and centrifuged for 5 min at 10,621g. After centrifugation a maximum of 800 µL clear supernatant was transferred to cryovials and the same amount of extraction solvent used in the first step was added to tissue precipitate. Extraction procedure was repeated as above and clear supernatants combined in the same cryovial and vial labelled as polar metabolite extract. On the remaining tissue pellet 1ml (per100mg tissue material) of Butanol/MeOH 3/1v/v was added and the above extraction sequence applied. Resulted clear supernatant transferred to a clean cryovial and labelled as lipid extract. All samples kept at the lowest available temperature (0 °C) throughout the extraction process and stored at -80 °C until further analysis.

In the case of `Cn1cc2cc(-c3cc4[nH]nc(C5CC5)c4n(-c4ccc(OC(F)F)cc4)c3=O)ccc2n1` [AZ’9567], the pIC50 [1] was 4.23, the “Free AUC24h” value ([2]; 3 mg/kg BID, day 1, mean ± SD) was 0.69 ± 0.07 µM·h and the “Free Cmax” value ([2]; 3 mg/kg BID, day 1, mean ± SD) was 40 ± 4 nM. For the same molecule, the “Free Cmin24h” value ([2]; 3 mg/kg BID, day 1, mean ± SD) was 10 ± 1 nM, the “Free AUC24h” value ([2]; 3 mg/kg BID, day 7, mean ± SD) was 0.76 ± 0.11 µM·h and the “Free Cmax” value ([2]; 3 mg/kg BID, day 7, mean ± SD) was 50 ± 10 nM. The “Free Cmin24h” value ([2]; 3 mg/kg BID, day 7, mean ± SD) was 10 ± 2 nM, the “Free AUC24h” value ([2]; 10 mg/kg BID, day 1, mean ± SD) was 2.6 ± 1.1 µM·h and the “Free Cmax” value ([2]; 10 mg/kg BID, day 1, mean ± SD) was 210 ± 60 nM. The “Free Cmin24h” value ([2]; 10 mg/kg BID, day 1, mean ± SD) was 40 ± 20 nM, the “Free AUC24h” value ([2]; 10 mg/kg BID, day 7, mean ± SD) was 3.9 ± 0.70 µM·h and the “Free Cmax” value ([2]; 10 mg/kg BID, day 7, mean ± SD) was 270 ± 110 nM. The “Free Cmin24h” value ([2]; 10 mg/kg BID, day 7, mean ± SD) was 80 ± 30 nM, the “Free AUC24h” value ([2]; 30 mg/kg BID, day 1, mean ± SD) was 12 ± 1.1 µM·h and the “Free Cmax” value ([2]; 30 mg/kg BID, day 1, mean ± SD) was 870 ± 190 nM. For the same molecule, the “Free Cmin24h” value ([2]; 30 mg/kg BID, day 1, mean ± SD) was 140 ± 40 nM, the “Free AUC24h” value ([2]; 30 mg/kg BID, day 7, mean ± SD) was 9.9 ± 2.2 µM·h and the “Free Cmax” value ([2]; 30 mg/kg BID, day 7, mean ± SD) was 680 ± 190 nM. For the same molecule, the “Free Cmin24h” value ([2]; 30 mg/kg BID, day 7, mean ± SD) was 150 ± 50 nM, the “distribution of the compound in liver sections” value [3] was “mostly homogenously across the liver with hotspots of increased abundance in the blood vessels” and the “brain penetrance Kpu,u” value [4] was 0.03 ± 0.01. For the same molecule, the “plasma SAM decrease, lower than the vehicle controls” value ([5]; 30 mg/kg BID) was 70%, the “brain SAM change” value ([5]; 3 and 10 mg/kg BID) was “no significant change” and the “heart SAM decrease” value ([5]; all dose levels) was ~90%. For the same molecule, the “liver SAM decrease” value ([5]; all doses) was ~ 45%.
